In US20100105655A1, “NOVEL COMPOUNDS 515” (ASTRAZENECA AB, priority 2008, published 2010):

Target: T1, IGFR kinase (Homo sapiens, UniProt P08069)
T1 construct: purchased Millipore
Assay: Enzyme assay (c), IGFR kinase, Caliper LabChip
Assay type: biochemical
Details: not given

T1 sequence (P08069 31-1367): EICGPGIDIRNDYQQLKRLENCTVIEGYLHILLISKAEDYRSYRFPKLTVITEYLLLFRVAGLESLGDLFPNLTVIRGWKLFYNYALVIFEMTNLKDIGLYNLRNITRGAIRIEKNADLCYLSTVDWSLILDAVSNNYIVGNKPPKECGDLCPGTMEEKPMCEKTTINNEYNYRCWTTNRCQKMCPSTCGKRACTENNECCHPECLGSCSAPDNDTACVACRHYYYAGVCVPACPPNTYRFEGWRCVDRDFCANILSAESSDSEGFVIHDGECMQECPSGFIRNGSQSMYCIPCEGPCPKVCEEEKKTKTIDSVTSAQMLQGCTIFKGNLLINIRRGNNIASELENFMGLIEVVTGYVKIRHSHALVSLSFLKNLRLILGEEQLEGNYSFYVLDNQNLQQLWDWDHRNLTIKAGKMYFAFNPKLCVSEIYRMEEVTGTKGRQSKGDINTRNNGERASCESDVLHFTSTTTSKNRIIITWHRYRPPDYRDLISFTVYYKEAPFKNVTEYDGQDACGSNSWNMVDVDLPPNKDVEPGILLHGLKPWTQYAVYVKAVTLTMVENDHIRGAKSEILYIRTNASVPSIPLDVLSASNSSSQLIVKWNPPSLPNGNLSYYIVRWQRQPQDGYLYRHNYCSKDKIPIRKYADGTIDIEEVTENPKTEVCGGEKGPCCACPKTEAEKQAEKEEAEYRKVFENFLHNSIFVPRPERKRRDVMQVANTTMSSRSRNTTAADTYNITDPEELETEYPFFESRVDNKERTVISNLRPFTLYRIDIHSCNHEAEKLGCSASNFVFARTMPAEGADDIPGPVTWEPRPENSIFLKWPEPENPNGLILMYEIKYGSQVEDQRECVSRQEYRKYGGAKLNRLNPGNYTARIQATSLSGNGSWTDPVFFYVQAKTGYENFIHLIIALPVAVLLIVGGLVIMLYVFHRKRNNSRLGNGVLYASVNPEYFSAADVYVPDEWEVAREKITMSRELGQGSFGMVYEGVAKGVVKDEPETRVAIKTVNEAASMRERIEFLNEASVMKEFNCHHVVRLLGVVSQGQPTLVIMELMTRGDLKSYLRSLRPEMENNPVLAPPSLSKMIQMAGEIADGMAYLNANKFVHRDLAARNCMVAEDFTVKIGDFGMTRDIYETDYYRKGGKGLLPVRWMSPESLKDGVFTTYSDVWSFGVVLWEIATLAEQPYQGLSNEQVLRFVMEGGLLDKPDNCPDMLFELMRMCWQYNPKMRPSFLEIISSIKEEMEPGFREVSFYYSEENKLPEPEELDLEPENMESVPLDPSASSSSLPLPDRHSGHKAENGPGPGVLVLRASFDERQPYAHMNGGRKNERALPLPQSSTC

IC50	SMILES
7 nM	COc1cc(N2CC3CNCC(C2)O3)ccc1Nc1ncc(Cl)c(-c2cnc3c(F)cccn23)n1 [Example 183, 5-chloro-4-(8-fluoroimidazo[1,2-a]pyridin-3-yl)-N-[2-methoxy-4-(9-oxa-3,7-diazabicyclo[3.3.1]nonan-7-yl)phenyl]pyrimidin-2-amine]

Same assay, conditions: 30 nM IGFR kinase, 6 uM ATP, 3 uM peptide mix; read-out: IGFR IC50

SMILES	IC50
COc1cc(N2CCN(CC(C)(C)O)CC2)ccc1Nc1ncc(F)c(-c2cnc3ccccn23)n1 [Example 91, 1-[4-[4-[(5-fluoro-4-imidazo[1,2-a]pyridin-3-yl-pyrimidin-2-yl)amino]-3-methoxy-phenyl]piperazin-1-yl]-2-methyl-propan-2-ol]	35 nM
COc1cc(OC2CN(C(=O)[C@H](C)OC)C2)ccc1Nc1ncc(Cl)c(-c2cnc3ccccn23)n1 [Example 27.2, (2S)-1-[3-[4-[(5-chloro-4-imidazo[1,2-a]pyridin-3-yl-pyrimidin-2-yl)amino]-3-methoxy-phenoxy]azetidin-1-yl]-2-methoxy-propan-1-one]	36 nM
COc1cc(OC[C@@H]2CCCN2C(C)=O)ccc1Nc1ncc(Cl)c(-c2cnc3ccccn23)n1 [Example 16, 1-[(2S)-2-[[4-[(5-chloro-4-imidazo[1,2-a]pyridin-3-yl-pyrimidin-2-yl)amino]-3-methoxy-phenoxy]methyl]pyrrolidin-1-yl]ethanone]	32 nM
COc1cc(N2CCCC2)ccc1Nc1ncc(F)c(-c2cnc3ccccn23)n1 [Example 80, 5-fluoro-4-imidazo[1,2-a]pyridin-3-yl-N-(2-methoxy-4-pyrrolidin-1-yl-phenyl)pyrimidin-2-amine]	133 nM
COc1cc(N2CCN(C(C)=O)CC2)ccc1Nc1ncc(C)c(-c2cnc3ccccn23)n1 [Example 97, 1-[4-[4-[(4-imidazo[1,2-a]pyridin-3-yl-5-methyl-pyrimidin-2-yl)amino]-3-methoxy-phenyl]piperazin-1-yl]ethanone]	47 nM
COc1cc(N2CCN(CCO)CC2)ccc1Nc1ncc(C)c(-c2cnc3ccccn23)n1 [Example 101, 2-[4-[4-[(4-imidazo[1,2-a]pyridin-3-yl-5-methyl-pyrimidin-2-yl)amino]-3-methoxy-phenyl]piperazin-1-yl]ethanol]	235 nM
COc1cc(OC2CCN(C(C)=O)CC2)ccc1Nc1ncc(C)c(-c2cnc3ccccn23)n1 [Example 103, 1-[4-[4-[(4-imidazo[1,2-a]pyridin-3-yl-5-methyl-pyrimidin-2-yl)amino]-3-methoxy-phenoxy]-1-piperidyl]ethanone]	77 nM
COc1cc(N2CC(C)NC(C)C2)ccc1Nc1ncc(Cl)c(-c2cnc3ccccn23)n1 (centres unmarked) [Example 3.6, 5-chloro-N-[4-(3,5-dimethylpiperazin-1-yl)-2-methoxy-phenyl]-4-imidazo[1,2-a]pyridin-3-yl-pyrimidin-2-amine]	20 nM
COc1cc(N2CCN(C(C)=O)CC2)ccc1Nc1ncc(F)c(-c2cnc3ccccn23)n1 [Example 72, 1-[4-[4-[(5-fluoro-4-imidazo[1,2-a]pyridin-3-yl-pyrimidin-2-yl)amino]-3-methoxy-phenyl]piperazin-1-yl]ethanone]	96 nM
COc1cc(OC2CCN(S(C)(=O)=O)CC2)ccc1Nc1ncc(Cl)c(-c2cnc3ccccn23)n1 [Example 8, 5-chloro-4-imidazo[1,2-a]pyridin-3-yl-N-[2-methoxy-4-[(1-methylsulfonyl-4-piperidyl)oxy]phenyl]pyrimidin-2-amine]	20 nM
COCCOC(=O)N1CCN(c2ccc(Nc3ncc(Cl)c(-c4cnc5ccccn45)n3)c(OC)c2)CC1 [Example 45, 2-methoxyethyl 4-[4-[(5-chloro-4-imidazo[1,2-a]pyridin-3-yl-pyrimidin-2-yl)amino]-3-methoxy-phenyl]piperazine-1-carboxylate]	24 nM
COc1cc(C(=O)N(C)CCO)ccc1Nc1ncc(Cl)c(-c2cnc3ccccn23)n1 [Example 33, 4-[(5-chloro-4-imidazo[1,2-a]pyridin-3-yl-pyrimidin-2-yl)amino]-N-(2-hydroxyethyl)-3-methoxy-N-methyl-benzamide]	57 nM
COc1cc(N2CCN(C(C)=O)C(CO)C2)ccc1Nc1ncc(Cl)c(-c2cnc3ccccn23)n1 (centres unmarked) [Example 3.38, 1-[4-[4-[(5-chloro-4-imidazo[1,2-a]pyridin-3-yl-pyrimidin-2-yl)amino]-3-methoxy-phenyl]-2-(hydroxymethyl)piperazin-1-yl]ethanone]	21 nM
COc1cc(OC2CCN(C(=O)C(C)O)CC2)ccc1Nc1ncc(Cl)c(-c2cnc3ccccn23)n1 (centres unmarked) [Example 9, 1-[4-[4-[(5-chloro-4-imidazo[1,2-a]pyridin-3-yl-pyrimidin-2-yl)amino]-3-methoxy-phenoxy]-1-piperidyl]-2-hydroxy-propan-1-one]	21 nM
COc1cc(N2CCN(C(C)=O)CC2)ccc1Nc1ncc(Cl)c(-c2cnc3cc(CN(C)C(C)=O)ccn23)n1 [Example 188, N-[[3-[2-[4-(4-acetylpiperazin-1-yl)-2-methoxy-anilino]-5-chloro-pyrimidin-4-yl]imidazo[1,2-a]pyridin-7-yl]methyl]-N-methyl-acetamide]	120 nM
COc1ccc(N2CC[C@@H](N(C)C)C2)cc1Nc1ncc(Cl)c(-c2cnc3ccccn23)n1 [Example 3.13, 5-chloro-N-[5-[(3R)-3-dimethylaminopyrrolidin-1-yl]-2-methoxy-phenyl]-4-imidazo[1,2-a]pyridin-3-yl-pyrimidin-2-amine]	60 nM

Further lines, results first:

IC50	SMILES
6 nM	COc1cc(N2CCN(C(=O)[C@@H](O)CO)CC2)ccc1Nc1ncc(Cl)c(-c2cnc3ccccn23)n1 [Example 56, (2S)-1-[4-[4-[(5-chloro-4-imidazo[1,2-a]pyridin-3-yl-pyrimidin-2-yl)amino]-3-methoxy-phenyl]piperazin-1-yl]-2,3-dihydroxy-propan-1-one]
10 nM	COc1cc(N2CCN(C(=O)C3CC3)CC2)ccc1Nc1ncc(Cl)c(-c2cnc3ccccn23)n1 [Example 43, [4-[4-[(5-chloro-4-imidazo[1,2-a]pyridin-3-ylpyrimidin-2-yl)amino]-3-methoxyphenyl]piperazin-1-yl]-cyclopropylmethanone]
10 nM	COc1cc(OCC(=O)N(C)C)ccc1Nc1ncc(Cl)c(-c2cnc3c(F)cccn23)n1 [Example 217, 2-[4-[[5-chloro-4-(8-fluoroimidazo[1,2-a]pyridin-3-yl)pyrimidin-2-yl]amino]-3-methoxy-phenoxy]-N,N-dimethyl-acetamide]
13 nM	COc1cc(N2CCN(CCO)CC2)ccc1Nc1ncc(C#N)c(-c2cnc3ccccn23)n1 [Example 116, 2-[[4-[4-(2-hydroxyethyl)piperazin-1-yl]-2-methoxy-phenyl]amino]-4-imidazo[1,2-a]pyridin-3-yl-pyrimidine-5-carbonitrile]
14 nM	COc1cc(C2CCN(C(C)=O)CC2)ccc1Nc1ncc(C(F)(F)F)c(-c2cnc3ccccn23)n1 [Example 108, 1-[4-[4-[[4-imidazo[1,2-a]pyridin-3-yl-5-(trifluoromethyl)pyrimidin-2-yl]amino]-3-methoxy-phenyl]-1-piperidyl]ethanone]
15 nM	COc1cc(N2CCN(C(=O)C3(O)CC3)CC2)ccc1Nc1ncc(Cl)c(-c2cnc3ccccn23)n1 [Example 22, [4-[4-[(5-chloro-4-imidazo[1,2-a]pyridin-3-yl-pyrimidin-2-yl)amino]-3-methoxy-phenyl]piperazin-1-yl]-(1-hydroxycyclopropyl)methanone]
15 nM	COc1cc(N2CCN(C)CC2)ccc1Nc1ncc(Br)c(-c2cnc3ccccn23)n1 [Example 121, 5-bromo-4-imidazo[1,2-a]pyridin-3-yl-N-[2-methoxy-4-(4-methylpiperazin-1-yl)phenyl]pyrimidin-2-amine]
19 nM	COc1cc(O[C@H]2CCN(S(C)(=O)=O)C2)ccc1Nc1ncc(Cl)c(-c2cnc3ccccn23)n1 [Example 14, 5-chloro-4-imidazo[1,2-a]pyridin-3-yl-N-[2-methoxy-4-[(3S)-1-methylsulfonylpyrrolidin-3-yl]oxy-phenyl]pyrimidin-2-amine]
10 nM	COc1cc(N(C)CCN(C)CCO)ccc1Nc1ncc(Cl)c(-c2cnc3c(F)cccn23)n1 [Example 221, 2-[2-[4-[[5-chloro-4-(8-fluoroimidazo[1,2-a]pyridin-3-yl)pyrimidin-2-yl]amino]-3-methoxy-N-methyl-anilino]ethyl-methyl-amino]ethanol]
8 nM	COc1cc(N2CCN(C(=O)[C@@H]3CCC(=O)N3)CC2)ccc1Nc1ncc(Cl)c(-c2cnc3ccccn23)n1 [Example 25.1A, (5S)-5-[4-[4-[(5-chloro-4-imidazo[1,2-a]pyridin-3-yl-pyrimidin-2-yl)amino]-3-methoxy-phenyl]piperazine-1-carbonyl]pyrrolidin-2-one]
18 nM	COc1ccc(OC[C@@H]2CCCN2)cc1Nc1ncc(Cl)c(-c2cnc3ccccn23)n1 [Example 6.3, 5-chloro-4-imidazo[1,2-a]pyridin-3-yl-N-[2-methoxy-5-[[(2S)-pyrrolidin-2-yl]methoxy]phenyl]pyrimidin-2-amine]
4 nM	COc1cc(C2CCN(C(=O)CO)CC2)ccc1Nc1ncc(Cl)c(-c2cnc3ccccn23)n1 [Example 28.5, 1-[4-[4-[(5-chloro-4-imidazo[1,2-a]pyridin-3-yl-pyrimidin-2-yl)amino]-3-methoxy-phenyl]-1-piperidyl]-2-hydroxy-ethanone]
6 nM	COc1cc(C2CCN(C(=O)[C@@H](C)O)CC2)ccc1Nc1ncc(Cl)c(-c2cnc3ccccn23)n1 [Example 28.2, (2R)-1-[4-[4-[(5-chloro-4-imidazo[1,2-a]pyridin-3-yl-pyrimidin-2-yl)amino]-3-methoxy-phenyl]-1-piperidyl]-2-hydroxy-propan-1-one]
8 nM	COc1cc(C2CCN(C(=O)CO)CC2)ccc1Nc1ncc(Cl)c(-c2cnc3c(F)cccn23)n1 [Example 179, 1-[4-[4-[[5-chloro-4-(8-fluoroimidazo[1,2-a]pyridin-3-yl)pyrimidin-2-yl]amino]-3-methoxy-phenyl]-1-piperidyl]-2-hydroxy-ethanone]
3 nM	COc1cc(C2CCN(C(=O)CO)CC2)ccc1Nc1ncc(Cl)c(-c2cnn3ccccc23)n1 [Example 137, 1-[4-[4-[(5-chloro-4-pyrazolo[1,5-a]pyridin-3-yl-pyrimidin-2-yl)amino]-3-methoxy-phenyl]-1-piperidyl]-2-hydroxy-ethanone]
